Laboratory results taken from ChEMBL document CHEMBL4673281, “Influenza antiviral activity of F- and OH-containing isopulegol-derived octahydro-2H-chromenes” (Bioorg Med Chem Lett, 2021).
Active and inactive are the calls of the source. The calls are words filed in the database; no cut-off is given here.

Key:
[1] = Selectivity index, ratio of CC50 for MDCK cells to IC50 for Influenza A virus (A/Puerto Rico/8/34 (H1N1)) infected in MDCK cells; format: toxicity, cell-based; settings: dog, read-out: Ratio CC50/IC50
[2] = Cytotoxicity against MDCK cells assessed as cell death incubated for 48 hrs by MTT assay; format: cell-based, Canis lupus familiaris; settings: dog
[3] = tested on: Influenza A virus; test: Antiviral activity against Influenza A virus (A/Puerto Rico/8/34 (H1N1) infected in MDCK cells assessed as decrease in viral titer preincubated for 1 hr followed by viral infection and cultivated for 48 hrs followed by supernatant transferred to chicken erythrocyte for 1 hr followed by measuring ability to cause positive hemagglutination; format: functional, organism-based; settings: A/Puerto Rico/8/1934(H1N1)
[4] = tested on: Influenza A virus; test: Antiviral activity against Influenza A virus (A/Puerto Rico/8/34(H1N1)) pdm09 infected in MDCK cells assessed as inhibition of virus infection at early stage by time of addition experiment; format: functional, organism-based; settings: A/Puerto Rico/8/1934(H1N1)
[5] = tested on: Influenza A virus (A/Puerto Rico/8/1934(H1N1)); test: Inhibition of Hemagglutinin in Influenza A virus (A/Puerto Rico/8/34(H1N1)); settings: dose 0-300 µg/ml

| SMILES | selectivity ratio [1] | CC50 at 48 h [2] | IC50 [3] | Activity [4] | inhibition [5] |
| --- | --- | --- | --- | --- | --- |
| C[C@@H]1CC[C@@H]2[C@@H](C1)O[C@@H](c1ccc(O)cc1)CC2(C)O (some centres undefined) | 1 | 127 µM | 87 µM |  |  |
| COc1ccc(OC)c([C@H]2CC(C)(F)[C@@H]3CC[C@@H](C)C[C@H]3O2)c1 (some centres undefined) | 1 | 37 µM | > 31 µM |  |  |
| C[C@@H]1CC[C@@H]2[C@@H](C1)O[C@@H](c1ccc(Cl)cc1)CC2(C)O (some centres undefined) | 2 | 62 µM | > 37 µM |  |  |
| C[C@@H]1CC[C@@H]2[C@@H](C1)O[C@@H](c1ccccc1O)CC2(C)F (some centres undefined) | 1 | 44 µM | > 36 µM |  |  |
| COc1ccc([C@H]2CC(C)(F)[C@@H]3CC[C@@H](C)C[C@H]3O2)cc1OC (some centres undefined) | 2 | 20 µM | > 9 µM |  |  |
| COc1ccc([C@H]2CC(C)(F)[C@@H]3CC[C@@H](C)C[C@H]3O2)cc1O (some centres undefined) | 4 | 136 µM | > 32 µM |  |  |
| COc1cc([C@H]2CC(C)(O)[C@@H]3CC[C@@H](C)C[C@H]3O2)cc(OC)c1O (some centres undefined) | 2 | 473 µM | 235 µM |  |  |
| COc1cc(OC)c([C@H]2CC(C)(F)[C@@H]3CC[C@@H](C)C[C@H]3O2)cc1OC (some centres undefined) | 13 | 78 µM | 6 µM |  |  |
| C[C@@H]1CC[C@@H]2[C@@H](C1)O[C@@H](c1ccc(F)cc1)CC2(C)F (some centres undefined) | 2 | 68 µM | > 36 µM |  |  |
| COc1ccc([C@H]2CC(C)(O)[C@@H]3CC[C@@H](C)C[C@H]3O2)c(OC)c1OC (some centres undefined) | 1 | > 857 µM | 717 µM |  |  |
| COc1cc(OC)c([C@H]2CC(C)(O)[C@@H]3CC[C@@H](C)C[C@H]3O2)cc1OC (some centres undefined) | 1 | > 857 µM | > 857 µM |  |  |
| CC(N)C12CC3CC(CC(C3)C1)C2 (centres undefined) [RIMANTADINE] | 5 | 326 µM | 69 µM |  |  |
| COc1cc([C@H]2CC(C)(F)[C@@H]3CC[C@@H](C)C[C@H]3O2)ccc1O (some centres undefined) | 2 | 642 µM | > 324 µM |  |  |
| COc1cc([C@H]2CC(C)(F)[C@@H]3CC[C@@H](C)C[C@H]3O2)cc(OC)c1OC (some centres undefined) | 3 | 568 µM | 199 µM |  |  |
| COc1cc([C@H]2CC(C)(F)[C@@H]3CC[C@@H](C)C[C@H]3O2)cc(OC)c1O (some centres undefined) | 3 | 158 µM | 59 µM |  |  |
| C[C@@H]1CC[C@@H]2[C@@H](C1)O[C@@H](c1ccccc1O)CC2(C)O (some centres undefined) | 1 | > 1090 µM | > 1090 µM |  |  |
| COc1ccc([C@H]2CC(C)(O)[C@@H]3CC[C@@H](C)C[C@H]3O2)cc1 (some centres undefined) | 24 | 689 µM | 29 µM |  |  |
| C[C@@H]1CC[C@@H]2[C@@H](C1)O[C@@H](c1ccc([N+](=O)[O-])cc1)CC2(C)F (some centres undefined) | 1 | > 976 µM | > 976 µM |  |  |
| COc1cc([C@H]2CC(C)(O)[C@@H]3CC[C@@H](C)C[C@H]3O2)ccc1O (some centres undefined) | 1 | 411 µM | > 327 µM |  |  |
| COc1ccc([C@H]2CC(C)(O)[C@@H]3CC[C@@H](C)C[C@H]3O2)c(OC)c1 (some centres undefined) | 12 | > 937 µM | 78 µM |  |  |

| SMILES | selectivity ratio [1] | CC50 at 48 h [2] | IC50 [3] | Activity [4] | inhibition [5] |
| --- | --- | --- | --- | --- | --- |
| C[C@@H]1CC[C@@H]2[C@@H](C1)O[C@@H](c1ccc(Br)cc1)CC2(C)F (some centres undefined) | 2 | > 882 µM | 391 µM |  |  |
| COc1ccc([C@H]2CC(C)(O)[C@@H]3CC[C@@H](C)C[C@H]3O2)cc1O (some centres undefined) | 6 | 738 µM | 118 µM |  |  |
| COc1ccc(OC)c([C@H]2CC(C)(O)[C@@H]3CC[C@@H](C)C[C@H]3O2)c1 (some centres undefined) | 2 | 512 µM | > 312 µM |  |  |
| C[C@@H]1CC[C@@H]2[C@@H](C1)O[C@@H](c1ccc(Cl)cc1)CC2(C)F (some centres undefined) | 2 | 57 µM | 29 µM |  |  |
| COc1cccc([C@H]2CC(C)(F)[C@@H]3CC[C@@H](C)C[C@H]3O2)c1OC (some centres undefined) | 4 | 180 µM | 43 µM |  |  |
| COc1ccc([C@H]2CC(C)(F)[C@@H]3CC[C@@H](C)C[C@H]3O2)c(OC)c1OC (some centres undefined) | 22 | 133 µM | 6 µM |  |  |
| COc1cc(OC)c([C@H]2CC(C)(O)[C@@H]3CC[C@@H](C)C[C@H]3O2)c(OC)c1 (some centres undefined) | 45 | 856 µM | 19 µM | Active | Dose-dependent effect |
| COc1ccc([C@H]2CC(C)(O)[C@@H]3CC[C@@H](C)C[C@H]3O2)cc1OC (some centres undefined) | 3 | > 937 µM | 344 µM |  |  |
| COc1ccc([C@H]2CC(C)(F)[C@@H]3CC[C@@H](C)C[C@H]3O2)c(OC)c1 (some centres undefined) | 2 | 379 µM | 155 µM |  |  |
| NC(=O)c1ncn([C@@H]2O[C@H](CO)[C@@H](O)[C@H]2O)n1 [RIBAVIRIN] | 61 | > 2130 µM | 35 µM |  |  |
| C[C@@H]1CC[C@@H]2[C@@H](C1)O[C@@H](c1ccc(F)cc1)CC2(C)O (some centres undefined) | 2 | 65 µM | > 36 µM |  |  |
| C[C@@H]1CC[C@@H]2[C@@H](C1)O[C@@H](c1ccc(Br)cc1)CC2(C)O (some centres undefined) | 1 | 132 µM | > 89 µM |  |  |
| C[C@@H]1CC[C@@H]2[C@@H](C1)O[C@@H](c1ccccc1)CC2(C)O (some centres undefined) | 6 | 580 µM | 100 µM |  |  |
| COc1ccc([C@H]2CC(C)(F)[C@@H]3CC[C@@H](C)C[C@H]3O2)cc1 (some centres undefined) | 2 | 171 µM | > 103 µM |  |  |
| COc1cc(OC)c([C@H]2CC(C)(F)[C@@H]3CC[C@@H](C)C[C@H]3O2)c(OC)c1 (some centres undefined) | 35 | 851 µM | 24 µM | Active | Dose-dependent effect |
| C[C@@H]1CC[C@@H]2[C@@H](C1)O[C@@H](c1ccccc1)CC2(C)F (some centres undefined) | 2 | 65 µM | > 38 µM |  |  |
| C[C@@H]1CC[C@@H]2[C@@H](C1)O[C@@H](c1ccc(O)cc1)CC2(C)F (some centres undefined) | 3 | 95 µM | > 36 µM |  |  |
| COc1cccc([C@H]2CC(C)(O)[C@@H]3CC[C@@H](C)C[C@H]3O2)c1OC (some centres undefined) | 1 | > 937 µM | > 937 µM |  |  |
| COc1cc([C@H]2CC(C)(O)[C@@H]3CC[C@@H](C)C[C@H]3O2)cc(OC)c1OC (some centres undefined) | 1 | 405 µM | > 285 µM |  |  |
| C[C@@H]1CC[C@@H]2[C@@H](C1)O[C@@H](c1ccc([N+](=O)[O-])cc1)CC2(C)O (some centres undefined) | 3 | > 982 µM | 393 µM |  |  |
